Laboratory results published in ChEMBL document CHEMBL1155181, “Structure-based design of substituted biphenyl ethylene ethers as ligands binding in the hydrophobic pocket of gp41 and blocking the helical bundle formation” (Bioorg Med Chem Lett, 2009).

Experiments:
[1] = Inhibition of HIV gp41 hexamer bundle formation by ELISA; parameters: species or system Human immunodeficiency virus
[2] = Inhibition of HIV gp41 hexamer bundle formation after 30 mins by SEC-HPLC assay; parameters: species or system Human immunodeficiency virus
[3] = tested on: Human immunodeficiency virus; assay: Inhibition of HIV gp41 six-helix bundle formation at 25 uM by FRET-based assay relative to C18Aib
[4] = tested on: Human immunodeficiency virus; assay: Inhibition of HIV gp41 hexamer bundle formation at 50 uM after 30 mins by size exclusion chromatography assay
[5] = Inhibition of HIV gp41 hexamer bundle formation after 30 mins by size exclusion chromatography assay; parameters: species or system Human immunodeficiency virus
[6] = tested on: Human immunodeficiency virus; assay: Inhibition of HIV gp41 six-helix bundle formation at 25 uM by FRET-based assay relative to ADS--J1

IC50 [1] [µM]	IC50 [2] [µM]	inhibition [3] [%]	inhibition [4] [%]	IC50 ([5]; read-out: IC50) [µM]	inhibition [6] [%]	IC50 [5]	Structure (SMILES)
1	0.9	–	–	–	–	–	O=C(O)c1ccc(-c2c3nc(c(-c4ccc(C(=O)O)cc4)c4ccc([nH]4)c(-c4ccc(C(=O)O)cc4)c4ccc([nH]4)c(-c4ccc(C(=O)O)cc4)c4nc2C=C4)C=C3)cc1
–	–	75	95	31	67	–	COC(=O)c1ccc(CCOc2cccc(-c3cccc(-c4nn[nH]n4)c3)c2)c2ccccc12
–	–	–	100	32.9	–	–	O=S(=O)(c1ccccc1)n1ccc2c(CCOc3cccc(-c4cccc(-c5nnn[nH]5)c4)c3)cccc21
–	–	–	100	–	–	Not Active	CC(C)(C)OC(=O)n1ccc2c(CCOc3cccc(-c4cccc(-c5nnn[nH]5)c4)c3)cccc21
